Data as given in patent publication US20110028458A1, “INHIBITION OF CELL MIGRATION BY A FARNESYLATED DIBENZODIAZEPINONE” (THALLION PHARMACEUTICALS INC., priority 2008, published 2011).
Where two headings read alike, the source gives them in different places.

Assays:
MES-SA = assay: MTT growth inhibitory assay, MES-SA; type: cell-based, human; conditions: 72 hours
Experimental: (§1) Growth inhibitory activity of TLN-4601 (Compound 1) and other dibenzodiazepinone analogs was evaluated on a panel of 4 human tumor cell lines: the human uterine sarcoma MES-SA and its doxorubicin-resistant P-glycoprotein over-expressing variant, MES-SA/DX5 as well as non-aggressive and highly aggressive human breast cell lines, MCF-7 and MDA-MB-231, respectively. These four cell lines were obtained from the American Type Culture Collection (Manassas, Va.) and cultured in RPMI plus 10% fetal bovine serum (FBS) and maintained at 37° C. with 5% CO2.
(§2) Exponentially growing cells (5,000 cells per well time; cell number determined with a hemocytometer) were seeded in 96-well flat-bottom plates and allowed to grow overnight. Cells were then incubated for 72 hours with three different concentrations of TLN-4601 or analogs: 30, 10, and 3 μM. The in vitro growth inhibitory activity was determined by a commercial MTT assay. All measurements were done in quadruplicate and each experiment was performed 2-3 times. The lower the value, the more cytotoxic is the compound.

MCF-7 = assay: MTT growth inhibitory assay, MCF-7; type: cell-based, human; conditions: 72 hours
Experimental: as §1, §2

MES-SA/DX5 = assay: MTT growth inhibitory assay, MES-SA/DX5; type: cell-based, human; conditions: 72 hours
Experimental: as §1, §2

MDA-MB-231 = assay: MTT growth inhibitory assay, MDA-MB-231; type: cell-based, human; conditions: 72 hours
Experimental: as §1, §2

PBR = biological target: T1, PBR (Rattus norvegicus, UniProt P16257); assay: In-house PBR binding assay, [3H]PK11195, rat heart mitochondrial membrane
T1 construct: containing the enriched mitochondria membrane preparation (25 μg of protein); from tissue; host or cells: Sprague Dawley rat heart, enriched mitochondrial membrane preparation
Experimental: Hearts obtained from 3 Sprague Dawley rats were homogenized in 20 volumes of ice-cold 50 mM Tris-HCl, pH 7.5. After two centrifugations at 1500 g for 10 minutes at 4° C., the supernatant was centrifuged at 48000 g for 20 minutes at 4° C. The resulting pellet was resuspended in 50 mM Tris-HCl pH 7.5 and protein concentration was estimated by the Bradford colorimetric staining method using BSA as the standard. […] In parallel, non-specific binding was measured with the presence of 20 μM cold PK11195. Samples were distributed onto 96-well GF/B filtration plates and incubated for 60 minutes at 25° C. and then washed once with PBR-binding buffer.

SRBC = assay: Hemolysis of SRBC; type: cell-based
U87 parental = assay: Caspase-3 activity, U87 parental cells; type: cell-based, human; conditions: 18 h, serum-free medium
Experimental: Firstly, cells (U87 parental, U87 transfected with EGFR-WT, and U87 transfected with mutated EGFR VIII) were plated in 6 well plates in DMEM containing 10% FBS. The following day, the plated cells were treated with increasing concentrations of Compound 1 (TLN-4601) in serum-free medium. After an 18 h incubation period in the presence of Compound 1, the treated cells were measured for caspase-3 activity using a commercial kit.

[1] = TLN-4601 concentrations in plasma and tissues of rats with C6 orthotopic brain tumors; type: in vivo; conditions: rat; for concentration at 60 min: CIV for 60 min
Experimental: (R)-1-(2-chlorophenyl)-[…]N-(1-methyl-propyl)-3-isoquinoline carboxamide (R N-desmethyl PK11195), the precursor for the radioisotope-labeled (R)-PK11195, was purchased from ABX (Radeburg, Germany). The synthesis of ^11C-(R)-PK11195 was accomplished by a modification of the method of Camsonne et al. (J. Label. Compd. Radiopharm., 21: 985-991, 1984). In vivo PET studies were performed 14 days post tumor implantation. PET imaging studies were performed while the animals were anesthetized and placed in the supine position on the bed and at the center of the FOV of the CTI Concorde R4 microPET scanner (Siemens/CTI Concorde, Knoxville, Tenn.). Each dynamic PET study lasted 60 min and was initiated with an IV bolus administration of 11C-PK11195 (7.1-12.7 MBq) radioligand via the tail vein. Receptor occupancy studies were performed by acquisition of 11C-PK11195 images prior to and during TLN-4601 treatment over 60 minutes. TLN-4601 was administered by a bolus IV infusion (30 mg/kg) followed by continuous IV infusion (5 mg/h/kg) lasting through the dynamic scan. Attenuation correction factors, for each 6 rats, were determined using a 10 minute 57 Co transmission scan acquired immediately prior to the dynamic scan. In addition, all images were scatter corrected.
Following completion of in vivo studies, animals were sacrificed by anesthetic overdose and decapitated. Brain, tumor, and liver were snap-frozen in liquid nitrogen and stored frozen (−70° C.±10° C.). For blood samples, each blood sample was collected into a K2-EDTA tube and kept on wet ice for a maximum of 30 minutes. Blood samples were centrifuged under refrigeration (2 to 8° C.) for 10 minutes at 1,500 g (RCF). A volume of 25 μL of aqueous 4% w/v L-ascorbic acid was added to a volume of 225 μL of rat plasma in a clean tube, and the samples were thoroughly mixed by inversion. A volume of 125 uL of the resulting mixture was transferred to a separate tube for bioanalysis, while the remaining mixture was maintained as a backup, and both the bioanalysis and back-up portions were frozen on dry ice and stored frozen (−70° C.±10° C.).
Rat plasma and tissue samples were extracted with 9 volumes of acetone containing 100 ng/mL of the internal standard (Compound 2) and analysed by HPLC/MS/MS as described in Gourdeau et al (Cancer Chemother Pharmacol vol 61 pp. 911-921).

[2] = test system: breast carcinoma tumor cell lines; assay: NCI panel, breast carcinoma; type: cell-based; conditions: Homo sapiens; read-out: GI50 range, breast carcinoma
Excerpt: (§3) A study measuring the in vitro cytotoxic activity of Compound 1 was first performed by the NCI (National Cancer Institute, U.S. National Institutes of Health, Bethesda, Md., USA) against a panel of human cancer cell lines. This screen utilizes 60 different human tumor cell lines, representing cancers of the blood, skin, lung, colon, brain, ovary, breast, prostate, and kidney. Further information regarding the NCI panel of human cancer lines can be obtained by following the links at the NCI world-wide website of the National Cancer Institute. The compound was sent and tested on three occasions (Mar. 31, 2003; Dec. 1, 2003; Mar. 27, 2007).

[3] = test system: ovarian carcinoma tumor cell lines; assay: NCI panel, ovarian carcinoma; type: cell-based; conditions: Homo sapiens; read-out: GI50 range, ovarian carcinoma
Excerpt: as §3

[4] = test system: U87 glioma cells and HVMEC-B; assay: Fluorimetric caspase-3 activity, U87 glioma versus brain endothelial cells; type: cell-based, human; conditions: 0-30 μM, 18 hours
Experimental: To test the effect of Compound 1 on caspase 3 activity in endothelial cells, the following experiment was conducted. HVMEC-B and U87 glioma cells were treated with increasing concentrations of Compound 1 (0-30 μM) in serum-free media for 18 hours. Fluorimetric caspase-3 activity assay was performed as follows: cells were grown to about 60% confluence in 6-well dishes and treated with increasing concentrations of Compound 1 for 18 hours. Cells were then collected and washed in ice-cold PBS pH 7.0. Cells were subsequently lysed in Apo-Alert lysis buffer (Clontech, Palo Alto, Calif.) for 1 hr at 4° C. and the lysates were clarified by centrifugation. Caspase-3 activity was determined by incubation with 50 μM caspase-3-specific fluorogenic peptide substrate acetyl-Asp-Glu-Val-Asp-7-amino-4-trifluoromethylcoumarin (Ac-DEVD-AFC) in 96-well plates. The release of AFC was monitored for at least 30 min at 37° C. on a fluorescence plate reader (Molecular Dynamics (Amersham Biosciences Inc, Sunnyvale, Calif.)) (λex=400 nm, λem=505 nm).

[5] = test system: 60 different human tumor cell lines; assay: NCI in vitro screening, 60 human tumor cell lines; type: cell-based; conditions: 60 cell lines
Excerpt: as §3

[6] = test system: colon carcinoma tumor cell lines; assay: NCI panel, colon carcinoma; type: cell-based; conditions: Homo sapiens; read-out: GI50 range, colon carcinoma
Excerpt: as §3

[7] = test system: MDA-MB-231 (mammary gland adenocarcinoma); assay: In vitro cytotoxic activity, propidium iodide, MDA-MB-231; type: cell-based, human; conditions: 96 hrs
ACAT = ACAT enzyme assay, [14C]cholesterol ester quantitation; type: biochemical, rat; conditions: 10 μM
Excerpt: (§4) The procedures used were based on known assays: ACAT (from rat; Ref: Largis et al (1989), J. Lipid. Res., vol 30, 681-689), COX-2 (human; Ref: Riendeau et al (1997), Can. J. Physiol. Pharmacol., vol 75, 1088-1095 and Warner et al (1999), Pro. Natl. Acad Sci. USA, vol 96, 7563-7568), 5-LO (human; Ref: Carter et al (1991), J. Pharmacol. Exp. Ther., vol 256, no 3, 929-937, and Safayhi et al (2000), Planta Medica, vol 66, 110-113), PBR (from rat; Le Fur et al (1983), Life Sci. USA, vol 33, 449-457), CysLT1 (human; Martin et al (2001), Biochem. Pharmacol., vol 62, no 9, 1193-1200) and CBR (from rat; Damm et al (1978), Res. Comm. Chem. Pathol. Pharmacol., vol 22, 597-600 and Speth et al (1979), Life Sci., vol 24, 351-357).
Binding assays were done for each of Compounds 1-12 and 46 using ACAT, COX-2, 5-LO, PBR and CysLT1 enzymes. The procedures used are based on the respective references mentioned above and the conditions are summarized in Tables 1 (enzyme assays) and 2 (radioligand receptor assays).
(§5) Binding Assays were done at constant concentration of the compound, in 1% DMSO as vehicle, and are specified below each enzyme/receptor type in Table 3. Significance was obtained when a result was ≧50% binding or inhibition (underlined).

[8] = test system: HT-29 (colorectal carcinoma); assay: In vitro cytotoxic activity, propidium iodide, HT-29; type: cell-based, human; conditions: 96 hrs
[9] = test system: PC-3 (prostate adenocarcinoma); assay: In vitro cytotoxic activity, propidium iodide, PC-3; type: cell-based, human; conditions: 96 hrs
SF268 (CNS) = assay: In vitro cytotoxic activity, propidium iodide, SF-268; type: cell-based, human; conditions: 96 hrs
[10] = test system: central benzodiazepine receptor (CBR; GABAA); assay: CBR (GABAA) radioligand binding assay, [3H]flunitrazepam, rat brain; conditions: 10 μM
Excerpt: as §4, §5
As Compound 1 was isolated from structural prediction through genetic analysis and activity identified through in vitro cytotoxic assays, its molecular target(s) were unknown at the time of discovery. Based on the structural characteristics of TLN-4601, we first investigated its binding affinity to the central (GABAA; CBR;) and peripheral (PBR) benzodiazepine receptors. The effect of TLN-4601 on CBR (GABAA) and PBR was initially evaluated in a radioligand-binding assay at MDS Pharma Services (Taipei, Tawain). CBR and PBR were obtained from rat brain and heart membrane-fractions, respectively. Displacement assays were done in the presence of 1 nM [^3H]-Flunitrazepam (CBR; GABAA) or 0.3 nM of [^3H]-PK11195 (PBR). TLN-4601 was tested at 0.01, 0.1, 0.5, 1, 5 and 10 μM. Non-specific binding was estimated in the presence of 10 μM diazepam (CBR) or 100 μM dipyrimadole (PBR) and assays were performed according to previous described methods (Damm et al Res Commun Chem Pathol Pharmacol 22, pp 597-600; Le Fur et al (1983) Life Science 33, pp 449-57). […] This contrats with current specific PBR ligands, which bind the PBR with nanomolar affinity yet their effect on cell proliferation, is in the micromolar range.

Row | Structure (SMILES) | % T/C at 10 μM, MES-SA (MES-SA) [%] | % T/C at 10 μM, MCF-7 (MCF-7) [%] | % T/C at 10 μM, MES-SA/DX5 (MES-SA/DX5) [%] | % T/C at 10 μM, MDA-MB-231 (MDA-MB-231) [%] | Hemolysis ED50 (concentration necessary to achieve 50% hemolysis of SRBC) (SRBC) [µg/mL] | GI50 [7] [µM] | Percentage of inhibition or binding activity, ACAT (ACAT) [%] | GI50 [8] [µM] | GI50 [9] [µM] | GI50 (SF268 (CNS)) [µM] | Percentage of inhibition or binding activity, CBR [10] [%] | further results
1 | CC(C)=CCC/C(C)=C/CC/C(C)=C/CN1C(=O)c2cccc(O)c2N(C)c2c1cc(O)c(Br)c2O [Compound 99] | 28 | 50 | 24 | 55 | – | – | – | – | – | – | – | –
2 | CC(C)=CCC/C(C)=C/CC/C(C)=C/CN1C(=O)c2cccc(O)c2Nc2c1cc(O)c(Br)c2O [Compound 97] | 80 | 28 | 83 | 68 | 15.1 | – | – | – | – | – | – | IC50 (PBR): 2.6 µM
3 | CC(C)=CCC/C(C)=C/CC/C(C)=C/CN1C(=O)c2cccc(O)c2Nc2c(O)cc(O)cc21 [Compound 1, 10-farnesyl-4,6,8-trihydroxy-5,10-dihydrodibenzo[b,e][1,4]diazepin-11-one] | – | – | – | – | 7.6 | – | – | – | – | – | – | increase in caspase-3 activation (U87 parental): approximately 15 fold; concentration at 60 min ([1]; Sprague-Dawley, liver, intravenous, read-out: concentration in liver): 24800 ng/g; concentration at 60 min ([1]; Sprague-Dawley, plasma, intravenous, read-out: concentration in plasma): 16200 ng/g; Kp at 60 min ([1]; Sprague-Dawley, tumor / plasma, intravenous, read-out: tumor compared to plasma): 11; concentration at 60 min ([1]; Sprague-Dawley, tumor, intravenous, read-out: accumulation in the tumor): 176 µg/mL; tumor compared to liver ([1]; in vivo): 7 fold; GI50 [2]: 1.4 to 16.3 µM; GI50 [3]: 2.5 to 6.2 µM; caspase-3 activity of U87 glioma cells compared to normal human brain endothelial cells [4]: 2-3 fold; cytotoxic activity in the NCI panel [5]: broad cytotoxic activity in the low micromolar range; GI50 [6]: 3 to 17.3 µM
4 | CC(=O)Oc1cc(OC(C)=O)c2c(c1)N(CC=C(C)CCC=C(C)CCC=C(C)C)C(=O)c1cccc(OC(C)=O)c1N2 [Compound 12] | – | – | – | – | >64 | 2.79 | 83 | 9.33 | 1.2 | 1.95 | −24 | –
5 | CC(=O)Oc1cc(OC(C)=O)c2c(c1)N(CC=C(C)CCC=C(C)CCC=C(C)C)C(=O)c1cccc(O)c1N2 [Compound 9] | – | – | – | – | >64 | 2.48 | 77 | 12.6 | 1.44 | 1.88 | 10 | –
